Read-outs that look alike come from different tables or passages of the source.
Tests used:
[1] = target: T1, NS5A-6HIS (full length NS5A, genotype 1b, Con1) (Hepatitis C virus (isolate Con1), UniProt Q9WMX2); experiment: competition of 3H-LDV binding, Ni-NTA capture
T1 construct: mature NS5A cut from HCV genome polyprotein; full length residues 1-447 with N-terminal amphipathic helix, C-terminal 6His tag kept; Sf9 baculovirus, C12E8 solubilised, phosphorylated
T1 sequence (Q9WMX2 1973-2419): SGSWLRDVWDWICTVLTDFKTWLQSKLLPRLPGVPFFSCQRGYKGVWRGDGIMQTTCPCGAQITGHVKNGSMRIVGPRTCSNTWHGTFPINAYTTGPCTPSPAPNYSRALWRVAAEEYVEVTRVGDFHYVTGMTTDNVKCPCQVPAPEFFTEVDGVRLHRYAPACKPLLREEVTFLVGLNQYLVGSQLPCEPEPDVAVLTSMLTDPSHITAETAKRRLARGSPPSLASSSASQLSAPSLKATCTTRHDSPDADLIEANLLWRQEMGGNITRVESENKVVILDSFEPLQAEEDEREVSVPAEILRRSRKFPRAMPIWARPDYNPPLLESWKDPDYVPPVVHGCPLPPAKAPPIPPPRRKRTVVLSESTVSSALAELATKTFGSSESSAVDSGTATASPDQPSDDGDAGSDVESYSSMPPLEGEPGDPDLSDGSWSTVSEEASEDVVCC

[2] = target: T1, NS5A-6HIS (full length NS5A, genotype 1b, Con1); experiment: competition of 3H-LDV binding, Ni-NTA capture; remark: listed apart in the source
Method: competition of 3H-LDV binding, Ni-NTA capture on NS5A-6HIS (full length NS5A, genotype 1b, Con1) | Ki was calculated using the Cheng-Prusoff equation

[3] = target: T1, NS5A-6HIS (full length NS5A, genotype 1b, Con1); experiment: radioligand saturation binding, Ni-NTA capture
[4] = target: NS5A-Y93H-6HIS (Y93H mutant of full length NS5A, genotype 1b, Con1, with C-terminal His tag) (Hepatitis C virus genotype 1b, Con1); experiment: AUC; sedimentation velocity (42,000 rpm, 3.3 and 6.6 uM) and equilibrium, 20 C, protein in C12E8 micelles, 25 mM Tris pH 7.5, 150 mM NaCl, 0.5 mM TCEP, 0.02% C12E8, 21.1% D2O (density matched to the detergent); self-association

Row | Compound | Ki [2] [nM] | IC50 ([1]; read-out: IC50) [nM] | further results
1 | O=C1N[C@H]2[C@H](CS[C@H]2CCCCC(=O)N2CCC[C@H]2C(=O)Nc2ccc(/C=C/c3ccc(NC(=O)[C@@H]4CCCN4C(=O)Cc4ccccc4)cc3)cc2)N1 [BMS-Biotin] |  |  | IC50 ([1]; read-out: no competition up to 100 μM): > 100000 nM
2 | COC(=O)N[C@H](C(=O)N1CCC[C@H]1c1nc(-c2ccc(-c3ccc(-c4c[nH]c([C@@H]5CCCN5C(=O)[C@@H](NC(=O)OC)C(C)C)n4)cc3)cc2)c[nH]1)C(C)C [daclatasvir] | 499 ± 68.3 | 753 | 
3 | COC(=O)N[C@H](C(=O)N1CC2(CC2)C[C@H]1c1ncc(-c2ccc3c(c2)C(F)(F)c2cc(-c4ccc5nc([C@@H]6[C@H]7CC[C@H](C7)N6C(=O)[C@@H](NC(=O)OC)C(C)C)[nH]c5c4)ccc2-3)[nH]1)C(C)C [ledipasvir] | 98.7 ± 10.2 | 149 | Kd [3]: 58.9 ± 6.6 nM
4 | NS5A-Y93H-6HIS (Y93H mutant of full length NS5A, genotype 1b, Con1, with C-terminal His tag) (natural protein) |  |  | percent dimers [4]: 3%; percent higher order oligomers [4]: 7%
